From patent publication US9751885B2, “Cyclopropanamine compound and use thereof” (Takeda Pharmaceutical Company Limited, priority 2012, dated 2017)
Where a name gives a salt, the structure may show the parent alone.

Legend:
[1] = molecular target: MAO-A enzyme (Homo sapiens (Human), UniProt P21397); experiment: Measurement of MAO-A inhibitory activity (MAO-Glo Assay); format: biochemical
Method: The MAO-A inhibitory activity evaluation described below followed the protocol of MAO-Glo (registered trademark) Assay of Promega KK.
A test compound dissolved in 4% DMSO was added by 12.5 μL to 25 μL reaction solution (100 mM HEPES (pH 7.5), 5% glycerol) containing 400 ng of MAO-A enzyme (Sigma-Aldrich Co. LLC.), and the mixture was reacted at room temperature for 10 min. […] After reaction at room temperature for 60 min, Luciferine detection reagent (Promega KK) (50 μL) was added to terminate the reaction. After reaction at room temperature for min with stirring, the luminescence was measured by Envision (PerkinElmer). The MAO-A inhibitory rate (%) of the test compound was calculated by the following formula. inhibitory rate(%)=(1−(test compound count−blank)÷(control−blank))×100
The count of the MAO-A enzyme reaction mixture under compound non-addition conditions is indicated as control, and the count under compound non-addition and MAO-A enzyme non-addition conditions is indicated as blank.

[2] = molecular target: human LSD1(172-833) (Homo sapiens (Human), UniProt O60341); experiment: Measurement of LSD1 inhibitory activity (time-resolved fluorescence, biotin-histone H3 mono methylated K4 peptide); format: biochemical
Outline: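 Remaining signal detected by TR-FRET after 60 min with europium anti-histone H3 antibody and streptavidin-XL665 in potassium fluoride/0.1% BSA.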

[3] = molecular target: MAO-B enzyme (Homo sapiens (Human), UniProt P27338); experiment: Measurement of MAO-B inhibitory activity (MAO-Glo Assay); details: read-out: MAO-B IC50 value;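 note: luminescence read-out, compound preincubated 10 min with enzyme then reacted 60 min at room temperature, inhibition relative to enzyme reaction without compound, blank lacking enzyme and compound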
MAO-B enzyme, sequence (P27338 whole entry): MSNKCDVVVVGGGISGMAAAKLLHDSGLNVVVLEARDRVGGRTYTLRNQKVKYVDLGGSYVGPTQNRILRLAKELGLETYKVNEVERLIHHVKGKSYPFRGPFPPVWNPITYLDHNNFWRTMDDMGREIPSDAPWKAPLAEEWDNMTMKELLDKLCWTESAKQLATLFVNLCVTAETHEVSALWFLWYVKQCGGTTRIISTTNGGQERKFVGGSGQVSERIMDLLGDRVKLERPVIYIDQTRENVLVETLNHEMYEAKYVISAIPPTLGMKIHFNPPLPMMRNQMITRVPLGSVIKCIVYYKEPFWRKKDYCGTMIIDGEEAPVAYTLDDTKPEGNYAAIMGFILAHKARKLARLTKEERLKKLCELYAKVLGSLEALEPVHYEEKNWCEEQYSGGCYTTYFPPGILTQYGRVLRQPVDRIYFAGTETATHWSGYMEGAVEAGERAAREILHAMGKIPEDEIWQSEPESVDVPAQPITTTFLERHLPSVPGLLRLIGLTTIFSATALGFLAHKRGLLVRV

MAO-A enzyme, sequence (P21397 whole entry): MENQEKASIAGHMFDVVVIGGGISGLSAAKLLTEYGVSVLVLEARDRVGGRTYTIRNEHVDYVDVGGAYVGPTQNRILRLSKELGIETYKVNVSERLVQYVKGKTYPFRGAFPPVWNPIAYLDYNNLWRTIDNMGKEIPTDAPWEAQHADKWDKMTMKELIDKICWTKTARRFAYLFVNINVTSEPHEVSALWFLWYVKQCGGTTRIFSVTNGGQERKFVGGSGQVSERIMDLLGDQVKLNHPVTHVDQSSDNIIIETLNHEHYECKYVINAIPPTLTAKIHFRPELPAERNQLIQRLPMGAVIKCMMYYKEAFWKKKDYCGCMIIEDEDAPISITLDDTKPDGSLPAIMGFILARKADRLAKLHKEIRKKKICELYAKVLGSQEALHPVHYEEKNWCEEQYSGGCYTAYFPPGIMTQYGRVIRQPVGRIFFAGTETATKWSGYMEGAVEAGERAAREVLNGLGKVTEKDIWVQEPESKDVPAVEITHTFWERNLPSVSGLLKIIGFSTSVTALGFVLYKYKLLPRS

| SMILES | IC50 [1] | IC50 [2] | IC50 [3] |
| --- | --- | --- | --- |
| O=C(NCc1ccccc1)c1ccc([C@@H]2C[C@H]2NCc2ccc(C(F)(F)F)cc2)cc1 (relative stereo) [Example 38, N-benzyl-4-(trans-2-((4-(trifluoromethyl)benzyl)amino)cyclopropyl)benzamide trifluoroacetate] | 2.2 µM | < 0.1 µM | > 10 µM |
| Cc1csc(CN[C@@H]2C[C@H]2c2ccc(C(=O)NCc3ccccc3)cc2)c1 (relative stereo) [Example 49, N-benzyl-4-(trans-2-(((4-methyl-2-thienyl)methyl)amino)cyclopropyl)benzamide trifluoroacetate] | 1.8 µM | < 0.1 µM | > 10 µM |
| N[C@@H]1C[C@H]1c1ccc(C(=O)N2CCCCC2)cc1 (relative stereo) [Example 7, (4-(trans-2-aminocyclopropyl)phenyl)(piperidin-1-yl)methanone hydrochloride] | 0.8 µM | < 0.1 µM | > 10 µM |
| O=C(NCCc1ccccn1)c1ccc([C@@H]2C[C@H]2NCC2CC2)cc1 (relative stereo) [Example 19, 4-(trans-2-((cyclopropylmethyl)amino)cyclopropyl)-N-(2-(pyridin-2-yl)ethyl)benzamide bis(trifluoroacetate)] | > 10 µM | < 0.1 µM | > 10 µM |
| O=C(Nc1ccc(Cc2ccccc2)cc1)c1cccc([C@@H]2C[C@H]2NCC2CC2)c1 (relative stereo) [Example 129, N-(4-benzylphenyl)-3-(trans-2-((cyclopropylmethyl)amino)cyclopropyl)benzamide trifluoroacetate] | > 10 µM | < 0.1 µM | > 10 µM |
| O=C(NCC(c1ccccc1)N1CCOCC1)c1ccc(C2CC2NCC2CC2)cc1 (stereo not drawn) [Example 24, 4-(trans-2-((cyclopropylmethyl)amino)cyclopropyl)-N-(2-(morpholin-4-yl)-2-phenylethyl)benzamide bis(trifluoroacetate)] | > 10 µM | < 0.1 µM | > 10 µM |
| O=C(Nc1ccccc1)c1ccc([C@@H]2C[C@H]2NCC2CC2)cc1 (relative stereo) [Example 8, 4-(trans-2-((cyclopropylmethyl)amino)cyclopropyl)-N-phenylbenzamide hydrochloride] | 8.3 µM | < 0.1 µM | 4.6 µM |
| O=C(NCc1ccccc1)c1ccc([C@@H]2C[C@H]2NCc2ccc(-c3cnccn3)cc2)cc1 (relative stereo) [Example 45, N-benzyl-4-(trans-2-((4-(pyrazin-2-yl)benzyl)amino)cyclopropyl)benzamide bis(trifluoroacetate)] | 1.7 µM | < 0.1 µM | > 10 µM |
| N#Cc1cccc(CN[C@@H]2C[C@H]2c2ccc(C(=O)NCc3ccccc3)cc2)c1 (relative stereo) [Example 43, N-benzyl-4-(trans-2-((3-cyanobenzyl)amino)cyclopropyl)benzamide trifluoroacetate] | 1.5 µM | < 0.1 µM | > 10 µM |
| CC(=O)N1CCC(N[C@@H]2C[C@H]2c2cccc(C(=O)Nc3cnn(Cc4ccc(F)cc4)c3)c2)CC1 (relative stereo) [Example 218, 3-(trans-2-((1-acetylpiperidin-4-yl)amino)cyclopropyl)-N-(1-(4-fluorobenzyl)-1H-pyrazol-4-yl)benzamide dihydrochloride] | > 10 µM | < 0.1 µM | > 10 µM |
| N[C@@H]1C[C@H]1c1ccc(C(=O)Nc2ccc(-c3ncccn3)cc2)cc1 (relative stereo) [Example 50, 4-(trans-2-aminocyclopropyl)-N-(4-(pyrimidin-2-yl)phenyl)benzamide dihydrochloride] | 0.2 µM | < 0.1 µM | > 10 µM |
| O=C(Nc1ccc2ncsc2c1)c1cccc([C@@H]2C[C@H]2NCC2CC2)c1 (relative stereo) [Example 144, N-(1,3-benzothiazol-6-yl)-3-(trans-2-((cyclopropylmethyl)amino)cyclopropyl)benzamide trifluoroacetate] | > 10 µM | < 0.1 µM | > 10 µM |
| Cc1ccsc1CN[C@@H]1C[C@H]1c1ccc(C(=O)NCc2ccccc2)cc1 (relative stereo) [Example 47, N-benzyl-4-(trans-2-(((3-methyl-2-thienyl)methyl)amino)cyclopropyl)benzamide trifluoroacetate] | 5 µM | < 0.1 µM | > 10 µM |
| O=C(Nc1cnn(CC2CC2)c1)c1cccc([C@@H]2C[C@H]2NC2CCC2)c1 (relative stereo) [Example 201, 3-(trans-2-(cyclobutylamino)cyclopropyl)-N-(1-(cyclopropylmethyl)-1H-pyrazol-4-yl)benzamide dihydrochloride] | > 10 µM | < 0.1 µM | > 10 µM |
| O=C(NCc1cccnc1)c1ccc([C@@H]2C[C@H]2NCC2CC2)cc1 (relative stereo) [Example 18, 4-(trans-2-((cyclopropylmethyl)amino)cyclopropyl)-N-(pyridin-3-ylmethyl)benzamide bis(trifluoroacetate)] | > 10 µM | < 0.1 µM | > 10 µM |
| O=C(Nc1ccc2nccnc2c1)c1cccc([C@@H]2C[C@H]2NCC2CC2)c1 (relative stereo) [Example 143, 3-(trans-2-((cyclopropylmethyl)amino)cyclopropyl)-N-(quinoxalin-6-yl)benzamide bis(trifluoroacetate)] | 2.1 µM | < 0.1 µM | > 10 µM |
| Cc1cnc(CNC(=O)c2ccc([C@@H]3C[C@H]3NCC3CC3)cc2)cn1 (relative stereo) [Example 15, 4-(trans-2-((cyclopropylmethyl)amino)cyclopropyl)-N-((5-methylpyrazin-2-yl)methyl)benzamide bis(trifluoroacetate)] | > 10 µM | < 0.1 µM | > 10 µM |
| Cc1ccc(CN[C@@H]2C[C@H]2c2ccc(C(=O)NCc3ccccc3)cc2)cc1 (relative stereo) [Example 34, N-benzyl-4-(trans-2-((4-methylbenzyl)amino)cyclopropyl)benzamide trifluoroacetate] | 4.4 µM | < 0.1 µM | > 10 µM |
| N#Cc1ccc(CN[C@@H]2C[C@H]2c2ccc(C(=O)NCc3ccccc3)cc2)cc1 (relative stereo) [Example 36, N-benzyl-4-(trans-2-((4-cyanobenzyl)amino)cyclopropyl)benzamide trifluoroacetate] | 4.3 µM | < 0.1 µM | > 10 µM |
| O=C(Nc1cnn(Cc2ccc(F)cc2)c1)c1cccc([C@@H]2C[C@H]2NC2CCOCC2)c1 (relative stereo) [Example 217, N-(1-(4-fluorobenzyl)-1H-pyrazol-4-yl)-3-(trans-2-(tetrahydro-2H-pyran-4-ylamino)cyclopropyl)benzamide dihydrochloride] | > 10 µM | < 0.1 µM | > 10 µM |
| O=C(NCc1ncccc1C(F)(F)F)c1ccc([C@@H]2C[C@H]2NCC2CC2)cc1 (relative stereo) [Example 26, 4-(trans-2-((cyclopropylmethyl)amino)cyclopropyl)-N-((3-(trifluoromethyl)pyridin-2-yl)methyl)benzamide bis(trifluoroacetate)] | > 10 µM | < 0.1 µM | > 10 µM |
| Cn1cc(NC(=O)c2ccc([C@@H]3C[C@H]3NCC3CC3)cc2)cn1 (relative stereo) [Example 53, 4-(trans-2-((cyclopropylmethyl)amino)cyclopropyl)-N-(1-methyl-1H-pyrazol-4-yl)benzamide dihydrochloride] | > 10 µM | < 0.1 µM | > 10 µM |
| O=C(NC1CCCC1)c1cccc([C@@H]2C[C@H]2NC2CCN(C3CC3)CC2)c1 (relative stereo) [Example 199, N-cyclopentyl-3-(trans-2-((1-cyclopropylpiperidin-4-yl)amino)cyclopropyl)benzamide dihydrochloride] | > 10 µM | < 0.1 µM | > 10 µM |
| O=C(c1ccc([C@@H]2C[C@H]2NCC2CC2)cc1)N1Cc2cccnc2C1 (relative stereo) [Example 20, (4-(trans-2-((cyclopropylmethyl)amino)cyclopropyl)phenyl)(5,7-dihydro-6H-pyrrolo[3,4-b]pyridin-6-yl)methanone bis(trifluoroacetate)] | > 10 µM | < 0.1 µM | > 10 µM |
| CCn1cc(NC(=O)c2cccc([C@@H]3C[C@H]3NCC3CCOCC3)c2)cn1 (relative stereo) [Example 86, N-(1-ethyl-1H-pyrazol-4-yl)-3-(trans-2-((tetrahydro-2H-pyran-4-ylmethyl)amino)cyclopropyl)benzamide dihydrochloride] | > 10 µM | < 0.1 µM | > 10 µM |
| O=C(NCc1ccccc1)c1cccc([C@@H]2C[C@H]2NCC2CC2)c1 (relative stereo) [Example 14, N-benzyl-3-(trans-2-((cyclopropylmethyl)amino)cyclopropyl)benzamide hydrochloride] | 8.1 µM | < 0.1 µM | > 10 µM |
| O=C(NCc1ccc(N2CCCC2=O)cc1)c1ccc([C@@H]2C[C@H]2NCC2CC2)cc1 (relative stereo) [Example 27, 4-(trans-2-((cyclopropylmethyl)amino)cyclopropyl)-N-(4-(2-oxopyrrolidin-1-yl)benzyl)benzamide trifluoroacetate] | > 10 µM | < 0.1 µM | > 10 µM |
| Cc1ccccc1CN[C@@H]1C[C@H]1c1ccc(C(=O)NCc2ccccc2)cc1 (relative stereo) [Example 33, N-benzyl-4-(trans-2-((2-methylbenzyl)amino)cyclopropyl)benzamide trifluoroacetate] | > 10 µM | < 0.1 µM | > 10 µM |
